Test results published in patent publication US20080261929A1, “COMBINATION OF PROGESTERONE-RECEPTOR ANTAGONIST TOGETHER WITH AN AROMATASE INHIBITOR FOR USE IN BRCA MEDIATED DISEASES” (priority 2007, published 2008).
Where two headings read alike, the source gives them in different places.

Legend:
[1] = molecular target: T1, progesterone receptor (Homo sapiens, UniProt P06401); assay: Progesterone receptor protein expression/stability after siRNA knock down of BRCA1 (Example 1); type: cell-based
T1 sequence (P06401 1-933): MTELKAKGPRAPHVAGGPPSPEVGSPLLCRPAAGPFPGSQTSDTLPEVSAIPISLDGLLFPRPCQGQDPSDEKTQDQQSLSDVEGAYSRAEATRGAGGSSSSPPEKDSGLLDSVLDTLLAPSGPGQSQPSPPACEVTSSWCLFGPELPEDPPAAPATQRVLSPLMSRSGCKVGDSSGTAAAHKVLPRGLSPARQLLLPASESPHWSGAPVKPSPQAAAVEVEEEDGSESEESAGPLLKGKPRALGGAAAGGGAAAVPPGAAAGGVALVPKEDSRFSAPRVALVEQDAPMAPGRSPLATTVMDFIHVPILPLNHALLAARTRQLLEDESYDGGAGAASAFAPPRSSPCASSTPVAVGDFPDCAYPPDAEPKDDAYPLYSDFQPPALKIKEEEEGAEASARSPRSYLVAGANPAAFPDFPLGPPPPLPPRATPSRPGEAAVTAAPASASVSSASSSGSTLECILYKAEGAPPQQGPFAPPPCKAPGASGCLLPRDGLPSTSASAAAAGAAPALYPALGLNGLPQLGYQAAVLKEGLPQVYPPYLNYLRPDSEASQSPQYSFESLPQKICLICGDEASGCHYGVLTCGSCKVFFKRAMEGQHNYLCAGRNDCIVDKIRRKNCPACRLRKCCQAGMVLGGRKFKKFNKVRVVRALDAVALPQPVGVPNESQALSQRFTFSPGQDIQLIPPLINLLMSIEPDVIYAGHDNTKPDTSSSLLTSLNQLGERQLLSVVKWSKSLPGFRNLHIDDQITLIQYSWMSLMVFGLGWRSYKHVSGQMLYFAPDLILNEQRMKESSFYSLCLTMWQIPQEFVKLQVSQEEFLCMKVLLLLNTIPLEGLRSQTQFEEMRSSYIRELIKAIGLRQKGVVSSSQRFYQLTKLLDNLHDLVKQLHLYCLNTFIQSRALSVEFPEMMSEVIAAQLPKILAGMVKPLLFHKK
Procedure: MCF-7 and T47D mammary cells were stabely transfected with the aromatse gene. These cells grow with androstenedione stimulus. These cells were treated with siRNA knocking down the BRCA1 and BRCA2 gene.
In a second step cells were stimulated either with progesterone and/or with androstenedione. […] The effects on progesterone receptor protein expression were further investigated.

[2] = molecular target: T1, progesterone receptor; assay: Progesterone receptor protein expression/stability after knock down of BRCA1 (Example 3)
Source text: MCF-7 and T47D mammary cells stabely transfected with the aromatse gene. These cells grow with androstenedione stimulus in vivo. These cells were stabely transfected with shRNA knocking down the BRCA1 and BRCA2 gene. Cell growth in vivo in comparison to untransfected and mock transfected cells was compared. In a second step cells were implanted in immunodeficient nude mice and stimulated either with progesterone and/or with androstenedione. […] The effects on progesterone receptor protein expression were further investigated.

[3] = system: tumor cells; assay: Apoptosis of tumor cells
[4] = molecular target: T1, progesterone receptor; settings: cited from earlier work
[5] = system: mammary tumors; settings: mice with rodent BRCA1- or BRCA2 inactivated in mammary glands; Poole et al., Science 2006; cited from earlier work
[6] = administered orally; cited from earlier work

Row | Structure (SMILES) | Effect on increased stability of progesterone receptor after BRCA1 knock down [1] | Effect on increased stability of progesterone receptor after BRCA1 knock down [2] | Apoptosis of tumor cells [3] | Antiprogestagenic activity ([4]; Fuhrmann et al., J. Med. Chem. 2000) | Other endocrinological (side) effects, e.g. androgen, estrogen or antiglucocorticoid activity [4] | Other endocrinological (side) effects, e.g. androgen, estrogen or antiglucocorticoid activity ([4]; listed as ZK230211) | Development of mammary tumors [5] | Bioavailability [6]
1 | CC(=O)c1ccc([C@H]2C[C@@]3(C)[C@@H](CC[C@@]3(O)C(F)(F)C(F)(F)F)[C@@H]3CCC4=CC(=O)CCC4=C32)cc1 [11β-(4-acetylphenyl)-17β-hydroxy-17α-(1,1,2,2,2-pentafluoroethyl)-estra-4,9-dien-3-one] | could be antagonized | could be antagonized | increased apoptosis of tumor cells | high antiprogestagenic activity | only very weak or no endocrine side effects | little or no other endocrinological effects | – | –
2 | CC#C[C@]1(O)CC[C@H]2[C@@H]3CCC4=CC(=O)CCC4=C3[C@@H](c3ccc(N(C)C)cc3)C[C@@]21C [mifepristone] | – | – | – | – | – | – | blocks the development of mammary tumors | poor bioavailability
